Test results: US20060127990A1, “4'-thionucleotide” (GENETICLAB CO., LTD, priority 2002, published 2006)

Tests used:
T7 RNA polymerase [1] = target: T1, T7 RNA polymerase (Escherichia phage T7, UniProt P00573); assay: Incorporation of 4′-thio UTP into RNA chain with T7 RNA polymerase (26mer transcript); type: biochemical; settings: 0.4 mM NTPs (GTP+ATP+CTP+4′-thio UTP), 100 U T7 RNA polymerase, 37° C., 3 hours; compared with lane 4 (native UTP)
Method: Incorporation experiment using T7 RNA polymerase was performed with 4′-thio UTP obtained in Example 9. In this experiment, double-stranded DNA containing T7 promoter sequence was used (FIG. 7).
The reaction was conducted in 20 μL of a solution containing 40 mM Tris-HCl with PH 8.0, 8 mM MgCl2, 2 mM spermidine, 5 mM DTT, 0.4 mM NTPs, 17 nM [γ-^32P]GTP, 2.0 μM template DNA and 100 U T7 RNA polymerase. NTPs were (1) GTP, (2) GTP+ATP, (3) GTP+ATP+CTP, (4) GTP+ATP+CTP+UTP, and (5) GTP+ATP+CTP+4′-thio UTP, respectively. The reaction solution was incubated at 37° C. for 3 hours, and the reaction was stopped. Subsequently, electrophoresis was performed with 20% modified polyacrylamide gel (30×40×0.05 cm, 1800 V, 1 hour, 1×TEB), and analysed by autoradiography.
In lane 1, bands corresponding to 2mer and 3mer of G and a rudder were observed. In lane 2, an expected band with chain elongation stopped at 6mer was observed, and a minor band elongated by one residue was observed. In lane 3, an expected band with chain elongation stopped at 9mer was observed, and a minor band elongated by one residue was observed. In lane 4, a band of 26mer full-length product was observed.

T7 RNA polymerase [2] = target: T1, T7 RNA polymerase; assay: Incorporation of 4′-thio UTP and 4′-thio CTP into RNA chain with T7 RNA polymerase (30mer transcript); type: biochemical; settings: 0.4 mM NTPs, replacing the native NTP, 47mer double-stranded DNA template, 37° C., 3 hours
Method: Incorporation experiment using T7 RNA polymerase was performed with 4′-thio UTP and 4′-thio CTP. In this experiment, 47mer double-stranded DNA containing T7 promoter sequence was used (FIG. 9).
The reaction was conducted in 20 μL of a solution containing 40 mM Tris-HCl with pH 8.0, 8 mM MgCl2, 2 mM spermidine, 5 mM DTT, 0.4 mM NTPS, 17 nM [γ-^32P]GTP, 2.0 μM template DNA and 100 U T7 RNA polymerase. NTPs were (1) ATP, GTP, CTP and UTP, (2) using 4′-thio UTP instead of UTP, 3) using 4′-thio CTP instead of CTP, and 4) UTP and CTP were replaced with 4′-thio UTP and 4′-thio CTP. The reaction solution was incubated at 37° C. for 3 hours, and the reaction was stopped. Subsequently, electrophoresis was performed with 20% modified polyacrylamide gel (30×40×0.05 cm, 1800 V, 1 hour, 1×TEB), and analysed by autoradiography.
A relative transcription efficiency is shown in FIG. 10 with a transcription efficiency of native NTPs being defined as 100.

T1 sequence (P00573 whole entry): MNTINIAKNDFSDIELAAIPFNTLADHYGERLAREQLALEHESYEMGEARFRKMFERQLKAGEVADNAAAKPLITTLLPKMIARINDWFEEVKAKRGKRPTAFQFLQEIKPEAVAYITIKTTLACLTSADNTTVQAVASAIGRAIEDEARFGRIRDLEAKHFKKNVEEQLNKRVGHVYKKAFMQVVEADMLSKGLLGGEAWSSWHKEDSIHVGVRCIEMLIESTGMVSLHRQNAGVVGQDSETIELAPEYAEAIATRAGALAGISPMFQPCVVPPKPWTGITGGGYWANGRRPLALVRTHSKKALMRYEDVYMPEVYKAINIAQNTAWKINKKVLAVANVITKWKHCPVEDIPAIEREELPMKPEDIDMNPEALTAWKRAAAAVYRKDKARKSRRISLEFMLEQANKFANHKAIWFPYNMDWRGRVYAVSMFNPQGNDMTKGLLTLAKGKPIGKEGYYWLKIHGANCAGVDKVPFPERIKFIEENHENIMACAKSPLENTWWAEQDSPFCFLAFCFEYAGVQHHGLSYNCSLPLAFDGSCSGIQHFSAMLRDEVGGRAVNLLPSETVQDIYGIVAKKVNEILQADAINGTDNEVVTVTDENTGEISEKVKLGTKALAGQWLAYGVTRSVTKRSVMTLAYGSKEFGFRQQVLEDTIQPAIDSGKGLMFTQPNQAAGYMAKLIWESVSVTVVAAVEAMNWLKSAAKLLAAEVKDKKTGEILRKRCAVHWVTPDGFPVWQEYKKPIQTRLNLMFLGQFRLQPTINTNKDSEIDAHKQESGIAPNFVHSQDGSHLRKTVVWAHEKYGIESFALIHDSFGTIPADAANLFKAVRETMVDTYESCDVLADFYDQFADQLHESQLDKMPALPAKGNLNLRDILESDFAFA

Compound	band of full-length product (26mer RNA) when used instead of UTP (T7 RNA polymerase [1])	recognition by T7 RNA polymerase as substrate and incorporation into RNA chain (30mer full-length product) (T7 RNA polymerase [2])
O=c1ccn([C@@H]2S[C@H](COP(=O)(O)OP(=O)(O)OP(=O)(O)O)[C@@H](O)[C@H]2O)c(=O)[nH]1 [4′-thio UTP, 4′-Thiouridine 5′-triphosphate]	approximately the same amount as in lane 4	incorporated into RNA chain efficiently
Nc1ccn([C@@H]2S[C@H](COP(=O)(O)OP(=O)(O)OP(=O)(O)O)[C@@H](O)[C@H]2O)c(=O)n1 [4′-thio CTP, 4′-Thiocytidine 5′-triphosphate]		incorporated into RNA chain efficiently
